Values joined by “and” are separate entries in the source; they are usually repeats but may differ in a detail not shown here. Equal entries are not always repeated. Where two headings read alike, the source gives them in different places.
Columns and labels:
[1] = Parallelogram approach prediction of AUC-DEB in rat from BD exposure; conditions: from the parallelogram approach
Experimental: The inter-species extrapolation was performed using in vitro metabolic data on enzyme kinetics and published Hb adduct data[6]. This study was initiated as the AUC of DEB (AUC-DEB), in humans exposed to BD, had not been possible to measure with available methods.
(§1) In our first application of the parallelogram approach, AUC-DEB was predicted in a case study on BD exposure. […] In the case of BD, the relatively large inter-species differences in metabolism were an advantage for testing of the approach.

[2] = AUC-DEB in rat calculated from measured Hb adduct levels after BD exposure; format: in vivo
From the text: as §1

[3] = set-up: method as in PMID 25448046; conditions: human, for 1 ppm·h of BD exposure; cited from earlier work
[4] = set-up: method as in PMID 25448046; conditions: rat, for 1 ppm·h of BD exposure; cited from earlier work
[5] = set-up: method as in PMID 25448046; conditions: mouse, for 1 ppm·h of BD exposure; cited from earlier work
[6] = set-up: method as in PMID 25448046; conditions: occupationally BD-exposed humans; cited from earlier work
[7] = set-up: method as in PMID 25448046; conditions: rat exposed to BD; cited from earlier work
[8] = set-up: method as in PMID 25448046; conditions: mouse exposed to BD; cited from earlier work
[9] = In vivo dose (AUC) in human calculated from measured Hb adduct levels after AA exposure; conditions: human in vivo study used (dietary AA)
Experimental: (§2) The in vivo dose or AUC of a compound in blood is the concentration integrated over time (Eq. 2).2 AUC=∫tC(t)dt A method to infer the AUC of an electrophilic compound or metabolite from measured Hb adduct levels (A) has been developed and established by our research group for quantitative monitoring of exposure in humans or for application in animal studies[1],[3]. When Hb adduct formation is measured a short time after a single acute exposure, or after incubation in vitro, AUC can be calculated using Eq. 3. This equation is based on A, and the second-order reaction rate constant (kNu) for the formation of an adduct to a nucleophilic site in Hb from the concerned electrophile.3 AUC=A/kNu
(§3) For calculating the daily AUC from a longer duration of exposure, the daily adduct level increments (a) have to be calculated considering the accumulation and elimination of adducts due to lifetime of the erythrocytes (t er). […] From continuous or subchronic exposure when the exposure time (t) is shorter than t er, the accumulated adduct level is calculated [a × t × (1 − t/2t er)][49].
In vivo dose or AUC of AA and of GA in human after intake of AA-rich food was obtained from Vikström et al.[23]. […] The measured adduct levels were used to calculate the daily adduct level increment, a, and adjusted for intake per kg bw (exposure dose 11 μg AA/kg bw). […]

[10] = In vivo dose (AUC) in rat calculated from measured Hb adduct levels after AA exposure; conditions: rat in vivo study used (AA in drinking water)
Experimental: as §2, §3
For in vivo data on AUC of AA and of GA from AA exposure in rats, a study on short-term oral exposure of rats was used[24]. […] Blood samples were collected and AA- and GA-adducts to N-terminal valine in Hb were measured as described above, and recalculated to the daily increment of the adduct level. […]

[11] = cited from earlier work
[12] = cited from earlier work; remark: listed apart in the source
[13] = liver microsomes, rat (male, SD) vs. human (male); cited from earlier work
[14] = set-up: method as in Doerge at al. (2005); conditions: male F344 rats, single dietary exposure ca. 100 µg AA/kg bw, n = 7, direct measurements; ref Doerge at al. (2005); cited from earlier work
[15] = male rat, different AA exposure studies, various methods; cited from earlier work

Row | SMILES | ratio for rat-to-human of AUC-DEB per AUC-EB [1] | ratio for rat-to-human of AUC-DEB per AUC-EB [2] | AUC-DEB predicted (parallelogram approach) [3] [nM·h] | AUC-DEB predicted (parallelogram approach) [4] [nM·h] | AUC-DEB predicted (parallelogram approach) [5] [nM·h] | AUC-DEB calculated from measured Hb adducts levels [6] [nM·h/ppm·h BD] | AUC-DEB calculated from measured Hb adducts levels [7] [nM·h/ppm·h BD] | AUC-DEB calculated from measured Hb adducts levels [8] [nM·h/ppm·h BD] | in vivo levels of AA (estimated) [9] | in vivo levels of AA (estimated) [10] [µM] | daily Hb adduct level increment per exposure dose ([11]; Human, AA-rich food 4 days, 11 μg AA/kg bw, adducts to N-terminal valine) | AUC-AA ([11]; Human, ca. 11 μg AA/kg bw and day through food, 4 days, n = 9, from Hb adducts) | AUC-AA ([11]; Humans, ca. 2.5 μg AA/kg bw daily through food, 28 days, n = 9, ref Vikström et al. (2011)) [nM·h/ μg AA per kg bw] | AUC-AA ([11]; Humans, single dose in drinking water 500, 1000 and 3000 µg AA/kg bw, n = 6 males, ref Fennell et al. (2005)) [nM·h/ μg AA per kg bw] | AUC-AA ([12]; Rat (male F344), 500 and 2000 μg AA/kg bw and day in drinking water, one week, n = 6, from Hb adducts) | AUC of AA ([12]; SD rat (male), subchronic intraperitoneal AA, Hb adducts on cysteine site) [nM·h per μg AA per kg bw] | AUC-AA ([12]; male F344 rats, single dose 0.1 mg AA/kg bw, Hb adducts, ref Tareke et al. (2006)) [nM·h/ μg AA per kg bw] | oxidation to GA, rat compared to human (times faster in rat) [13] | AUC-AA [14] [nM·h/ μg AA per kg bw] | range of AUC-AA [15]
1 | C1OC1C1CO1 (centres unmarked) [DEB, 1,2:3,4-diepoxbutane] | 2.2 | 4.3 | 0.078 | 1.26 | 41 | 0.023 | 1.37 | 38 |  |  |  |  |  |  |  |  |  |  |  | 
2 | C=CC(N)=O [AA, Acrylamide] |  |  |  |  |  |  |  |  | about 100 nM | ~25 | 1.4 pmol/g globin per μg AA/kg bw and day | 212 ± 56 nM·h/μg AA per kg bw and 212 nM·h/μg AA per kg bw | 120 | 246 | 34 ± 3 nM·h/μg AA per kg bw and 34 nM·h/μg AA per kg bw | 28.2 | 23 | ca. 3 times | 18 | 18–80 nM·h per μg AA per kg bw

From publication PMC5730592, “Parallelogram based approach for in vivo dose estimation of genotoxic metabolites in humans with relevance to reduction of animal experiments” (Scientific Reports, 2017)
